From the METLIN SMRT retention time set (Domingo-Almenara et al. 2019)

Experiment: gradient 5% acetonitrile 3 min, to 50% in 2 min, to 85% in 15 min, held 3 min, 100 µL/min
Settings: column: Zorbax Extend-C18 2.1 x 50 mm; eluents: water / acetonitrile, 0.1% formic acid
Method in brief: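 A Zorbax Extend-C18 column (2.1 × 50 mm, 1.8 μm) run at 100 μL/min with water and acetonitrile, both containing 0.1% formic acid, separated mixtures of ~100 pure standards. The HPLC was coupled to a quadrupole time-of-flight mass spectrometer operated in positive and negative ionization mode, with dead and dwell volumes of 40 μL and 900 μL. Each retention time was taken from a computationally picked adduct peak that was then manually inspected.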

Structure (SMILES)	RP-LC retention time [s]
CCn1cnc(S(=O)(=O)N2CCCC(C(=O)NCCc3ccccc3)C2)c1 (stereo not given)	702
Cc1nnc2n1CCC(NC(=O)c1ccsc1)CC2 (stereo not given)	559
COCCOC1CCC12CCN(C(=O)c1ocnc1C)CC2 (stereo not given)	686
Cc1cc2c(cc1S(=O)(=O)N1CCCC1C(=O)NCc1ccccc1Cl)OCC(=O)N2 (stereo not given)	791
Cc1nnc2ccc(S(=O)(=O)N(Cc3ccc(F)cc3)c3ccccc3)cn12	863
Cc1nc(CNC(=O)C2CCN(C(=O)Nc3cccc(Br)c3)CC2)cs1	707
COCCCNC(=O)C1CCCN(c2ccc(=O)n(-c3ccc(OC)cc3)n2)C1 (stereo not given)	658
Cn1c(=O)c2c(ncn2CC(=O)N2CCCC(c3nc(C4CCOCC4)no3)C2)n(C)c1=O (stereo not given)	613
Cn1cnc2ccc(-c3noc(-c4ccc(Br)cc4)n3)cc21	848
Cc1ccc(C)c(S(=O)(=O)N2CCC(c3noc(COCC4CC4)n3)CC2)c1	1100
COCCN1C(=O)[C@H]2CN(Cc3cccc4[nH]ccc34)C[C@H]2C1=O	583
CCOc1ccc(-c2cn3ccn(-c4cc(C)cc(C)c4)c(=O)c3n2)cc1	965
CC(C)c1c(C2CCN(C(=O)c3cc4ccccc4[nH]3)CC2)noc1N	824
CCOC(=O)C(C)Sc1nnc(NC(=O)Cc2ccc(OC)cc2)s1 (stereo not given)	806
COc1ccc(CNC(=O)CN2CCN(Cc3ccccc3)C(=O)C2=O)cc1	684
COCCCNC(=O)c1nc(Nc2ccc(C)cc2)c2ccccc2n1	709
O=C1OCC/C1=C\c1ccc2c(c1)OCO2	830
Cn1nc(-c2ccc(NC(=O)c3ccc([N+](=O)[O-])cc3Cl)cc2)ccc1=O	714
CC(C)CNC(=O)C1CCN(c2nc3ccc(-c4cncnc4)nc3s2)CC1	663
CCOc1cc(C(=O)N(CC)c2nc(-c3ccccc3)cs2)cc(OCC)c1OCC	663

Structure (SMILES)	RP-LC retention time [s]
Cc1nc(-c2ccc(-c3noc(-c4ccnn4C)n3)cc2)cs1	1060
Cc1noc(C2CN(C(=O)c3cnn(C)c3)CC23CCCC3)n1 (stereo not given)	684
COCc1noc([C@@H]2CN(C(=O)C3CC=CC3)C[C@H]2C(N)=O)n1	609
CCNC(=O)C1CCCN(c2nc3ncn(CC(=O)Nc4ccc(CC)cc4)c(=O)c3s2)C1 (stereo not given)	661
COc1ccc(C(=O)Nc2nc(-c3ccc4c(c3)NC(=O)C(C)O4)cs2)cc1OC (stereo not given)	864
CCn1cc(CCNC(=O)NC)c2cccnc21	561
Cc1noc(-c2cc(=O)n(CC(=O)Nc3cccc(C#N)c3)c3ccccc23)n1	831
COc1ccc(OC)c2sc(NCc3ccccn3)nc12	585
CC1Oc2ccc(S(=O)(=O)N3CCC(C(=O)Nc4ccccc4F)CC3)cc2NC1=O (stereo not given)	761
Cc1c(Cl)cccc1NC(=O)NC1CCN(c2ccc(F)cc2)C1=O (stereo not given)	864
COc1ccc(OC)c(NC(=O)CCc2c(-c3ccc(F)cc3)nc3ccccn23)c1	665
CCC1Oc2ccc(S(=O)(=O)N3CCC(C(=O)Nc4ccc(OC)cc4)CC3)cc2NC1=O (stereo not given)	861
COc1cccc(-c2nc(Cn3ccn4nc(-c5ccc(F)cc5)cc4c3=O)c(C)o2)c1OC	1080
CCC(=O)N1CCc2cc(CNS(=O)(=O)c3ccc(OC)cc3)ccc21	812
Cc1ccc(C)c(Cn2nc3ccc(S(=O)(=O)N4CCC(C)CC4)cn3c2=O)c1	1130
Cc1ccoc1C(=O)N1CCC2(CCC2O)CC1 (stereo not given)	645
CCC(CC)C(=O)N1CCC(N2CCN(Cc3ccc(C)cc3)C(=O)C2=O)CC1	756
CCCCCn1c(=O)c2ccccc2n(Cc2nc(-c3ccc(SC)cc3)no2)c1=O	1290
O=C(Nc1ccccc1)[C@@H]1OCC(=O)N(C2CC2)[C@H]1c1ccccc1	775
CCc1ccc(NC(=O)N2CCCC(C)(C(=O)NCc3ccc(F)cc3)C2)cc1 (stereo not given)	972

Structure (SMILES)	RP-LC retention time [s]
CCc1nnc(NS(=O)(=O)c2ccc(NC(=O)c3ccco3)cc2)s1	680
CN(C)CCCn1c(C2CC(=O)N(c3ccc(F)cc3)C2)nc2ccccc21 (stereo not given)	590
Cc1nn(C)cc1C(=O)NC1CCN(c2ccc(=O)n(C)n2)C1 (stereo not given)	562
Cc1cc(C)cc(C(=O)N2CCCC(C(=O)NCc3ccco3)C2)c1 (stereo not given)	798
CCc1ccc(NC(=O)N2CCc3nc(-c4ccc(Cl)cc4)ncc3C2)cc1	1150
O=C(c1ccno1)N1CCC(c2nnc(-c3ccco3)s2)CC1	644
O=C(NCc1csc(-c2ccccc2)n1)C1CCN(C(=O)Nc2ccccc2Cl)CC1	822
COc1ccc(/C=C/C(=O)Oc2cc(O)cc(O)c2)cc1	763
CCc1cc(=O)n(CC(=O)Nc2ccc(C)cc2)c(N)n1	617
COc1ccc(NC(=O)N2c3ccccc3CC2c2nc(C(C)C)no2)c(OC)c1 (stereo not given)	1080
CCOC(=O)c1c(NCCC(C)C)c2cc(Cl)ccc2[nH]c1=O	890
Cc1ccccc1NC(=O)NC1CCN(c2ccc(F)cc2)C1=O (stereo not given)	792
Cc1cccc(Oc2nccn3c(=O)n(CC(=O)NCCC4=CCCCC4)nc23)c1C	1000
CC(C)CNC(=O)C1CCCN(c2cnc3nccnc3c2)C1 (stereo not given)	658
O=C(Cc1ccc(Cl)cc1)Nc1nnc(C2CC(=O)N(c3ccc(F)cc3)C2)o1 (stereo not given)	772
Cc1ccc(-c2nc3ccccn3c2NC(=O)NCc2ccco2)cc1	629
Clc1cccc(-c2nc(-c3ccc4c(c3)ncn4CCN3CCOCC3)no2)c1	676
CCOC(=O)c1cc2c([nH]c1=O)CC(c1cccc(C)c1)CC2=O (stereo not given)	653
Cn1nccc1-c1cccc(-c2noc(-c3cc(Cl)ccc3F)n2)c1	1210

Results, then the compound that gave them:

RP-LC retention time [s]	Structure (SMILES)
730	Cc1noc(-c2ccc(S(=O)(=O)N3CCN(c4ccccn4)CC3)s2)c1C
590	CCOC(=O)CNC(=O)Nc1cc(F)c2nc(N3CCCC3)ccc2c1
729	Cc1noc(-c2nn(C)c3c2CN(C(=O)COc2ccccc2)CC3)n1
766	COc1ccc(NC(=O)Cn2nc(N3CCOCC3)c3ccccc3c2=O)c(OC)c1
623	CCCc1cc(N2CCN(C(=O)c3ccc(OC)nc3)CC2)nc2nnc(CC)n12
1090	O=C(Cn1cccc1-c1nc(-c2ccc3c(c2)OCO3)no1)N1CCc2ccccc21
749	CC(=O)Nc1ccc(-n2cnc(C(=O)N3CCN(c4cccc(Cl)c4)CC3)c2)nc1
845	COc1ccc(-c2nc(Cn3cnc4nc5c(cc4c3=O)CCCC5)c(C)o2)c(OC)c1
878	O=C(c1ccc(-c2cccs2)nc1)N1CCCCCC1
715	O=C(NCc1cc(F)ccc1F)C1CCc2nc(N3CCOCC3)ncc2C1 (stereo not given)
679	CCOC(=O)N1CCC(NC(=O)C2CCCN(c3ncnc4c3oc3ccccc34)C2)CC1 (stereo not given)
1090	CCS(=O)(=O)N1CCCCCC1c1ccccc1Cl (stereo not given)
629	O=C(CCn1c(N2CCCCC2)nc2ccsc2c1=O)N1CCN(c2ccccn2)CC1
906	O=C([C@@H]1C[C@H](F)CN1S(=O)(=O)c1cc(F)ccc1F)N1CCc2ccccc2C1
881	CCN(CC)C(=O)C1CCCN(c2ncnc3c2cnn3-c2ccccc2)C1 (stereo not given)
821	CC(=O)c1cccc(NC(=O)Cn2cc3c(n2)CCCCC3)c1

RP-LC retention time [s]	Structure (SMILES)
544	COc1cccc(CN2CCc3nn(C)c(=O)n3CC2)n1
859	Cc1cc(OCC(=O)N(C)c2ccccc2)nc(N2CCN(c3ccccc3)CC2)n1
776	Cc1noc(-c2ccnc(-n3cnc(C(=O)NC4CCCCC4)c3)c2)n1
706	Cc1cccc(CN2CC=C(C(=O)N3CCN(c4cccc(C)c4)CC3)CC2)c1
646	Cc1nnc(CNC(=O)c2cc(-c3ccccc3)nn2C)o1
765	O=C1CC(c2ccccc2Cl)Cc2nc(N3CCN(Cc4ccc5c(c4)OCO5)CC3)ncc21 (stereo not given)
856	CC1CCCN(Cc2nc(-c3ccc(N4CCSCC4)nc3)no2)C1 (stereo not given)
657	CCCn1ccc2sc(C)c(C(=O)NCCN3CCCCCC3)c2c1=O
915	Cc1cc(C)cc(NC(=O)COc2cc(C)nc(N3CCN(c4ccccc4)CC3)n2)c1
1180	Cc1cc(Cl)ccc1OCc1nc(-c2ccc3c(c2)nnn3CCC(=O)N2CCCCCC2)no1
854	CC(C)NC(=O)N1CCCC(c2cccc(C(=O)NCc3ccccc3F)c2)C1 (stereo not given)
602	O=C(Cn1ncn2nc(-c3ccccc3)cc2c1=O)NCCCN1CCCC1
673	Cc1cc(N2CCCCC2)n2nc(CN3CCN(c4ccccc4F)CC3)nc2n1
1160	CCc1cccc(C)c1NC(=O)Cn1nc(N2CCC(C)CC2)c2ccccc2c1=O
858	Cc1cc(-c2nnc(C3CCC3)o2)c(C)n1CC(=O)NCc1ccccc1F
